{"source": "patent US5189064A", "about": "“Treatment of cocaine addiction” (Matrix Technologies, Inc., priority 1990, dated 1993)", "origin": "cited, not measured here", "key": {"[Met]-enkephalin [1]": {"tested_on": "[Met]-enkephalin"}, "enkephalinases": {"tested_on": "enkephalinases", "details": "rat intestinal mucosa"}, "enkephalinase A": {"tested_on": "enkephalinase A", "details": "in vitro, calf brain enzyme"}, "enkephalinase B": {"tested_on": "enkephalinase B", "details": "in vitro, calf brain enzyme"}, "carboxypeptidase A": {"biological_target": "T1, carboxypeptidase A (Bos taurus, UniProt P00730)", "T1 sequence (P00730 111-417 limits assumed)": "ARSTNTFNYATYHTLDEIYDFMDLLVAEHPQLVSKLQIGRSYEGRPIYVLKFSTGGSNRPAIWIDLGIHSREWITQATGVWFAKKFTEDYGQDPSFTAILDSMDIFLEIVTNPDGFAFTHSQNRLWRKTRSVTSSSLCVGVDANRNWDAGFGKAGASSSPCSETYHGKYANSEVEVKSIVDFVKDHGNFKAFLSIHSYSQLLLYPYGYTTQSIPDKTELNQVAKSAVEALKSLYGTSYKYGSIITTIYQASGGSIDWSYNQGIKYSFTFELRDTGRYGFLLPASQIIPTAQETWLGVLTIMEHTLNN"}, "[Met]-enkephalin [2]": {"tested_on": "[Met]-enkephalin", "details": "mice"}, "[3]": {"details": "tryptophan injected into the bloodstream"}, "[4]": {"details": "infusion, neurological patients with depression and insomnia"}, "healthy men": {"tested_on": "healthy men", "details": "tryptophan 50 mg/kg, tyrosine 100 mg/kg, eight healthy men"}}, "note": "Read-outs that look alike come from different tables or passages of the source. Square brackets hold non-standard residues; d marks the D form. Ends that are not written are not given here."}
{"molecule": "N[C@H](Cc1ccccc1)C(=O)O", "note": "[D-phenylalanine]", "values": [{"measurement": "enkephalinase inhibited", "setting": "enkephalinase; cortex", "result": 60, "unit": "%"}, {"measurement": "enkephalinase inhibited", "setting": "enkephalinase; hypothalamus", "result": 80, "unit": "%"}, {"measurement": "enkephalinase inhibited", "setting": "enkephalinase; spinal cord", "result": 84, "unit": "%"}, {"measurement": "enkephalinase inhibited", "setting": "enkephalinase; striatum", "result": 78, "unit": "%"}, {"measurement": "endorphinase inhibited", "setting": "endorphinase; cortex", "result": 18, "unit": "%"}, {"measurement": "endorphinase inhibited", "setting": "endorphinase; hypothalamus", "result": 5, "unit": "%"}, {"measurement": "endorphinase inhibited", "setting": "endorphinase; spinal cord", "result": 40, "unit": "%"}, {"measurement": "endorphinase inhibited", "setting": "endorphinase; striatum", "result": 10, "unit": "%"}, {"measurement": "CNS [Met]-enkephalin level", "setting": "[Met]-enkephalin [1]; six days later", "result": "remained high"}, {"measurement": "CNS increases of [Met]-enkephalin", "setting": "[Met]-enkephalin [1]; within 90 minutes following DPA injection", "result": "tripled"}, {"measurement": "degradation of (D-Ala2-D-Leu5) enkephalin (DAPLE) and Tyr-D-Ala-Gly-Phe (TAAGP)", "setting": "enkephalinases", "result": "significantly reduced degradation"}, {"measurement": "inhibitory activity against enkephalinase A", "setting": "enkephalinase A", "result": "much less effective"}, {"measurement": "inhibitory activity against enkephalinase B", "setting": "enkephalinase B", "result": "much less effective"}, {"measurement": "inhibition of carboxypeptidase A", "setting": "carboxypeptidase A", "result": "inhibit carboxypeptidase A"}]}
{"molecule": "O=C(O)CCc1ccccc1", "note": "[hydrocinnamic acid]", "values": [{"measurement": "[Met]-enkephalin in the brain", "setting": "[Met]-enkephalin [2]", "result": "increases of [Met]-enkephalin"}]}
{"molecule": "N[C@@H](Cc1c[nH]c2ccccc12)C(=O)O", "note": "[tryptophan, L-tryptophan]", "values": [{"measurement": "level of serotonin in the brain elevated", "setting": "[3]", "result": "two"}, {"measurement": "level of tryptophan in the brain elevated", "setting": "[3]", "result": "nine"}, {"measurement": "elevations in cortical tryptophan levels", "setting": "[4]", "result": "six"}, {"measurement": "pain discriminability", "setting": "healthy men", "result": "significantly reduced pain discriminibility"}]}
{"molecule": "N[C@@H](Cc1ccc(O)cc1)C(=O)O", "note": "[tyrosine, L-tyrosine]", "values": [{"measurement": "pain discriminability", "setting": "healthy men", "result": "not"}]}
{"molecule": "[dF]-Tyr", "values": [{"measurement": "inhibitory activity against enkephalinase A", "setting": "enkephalinase A", "result": "markedly enhances the inhibitory potency"}, {"measurement": "inhibitory activity against enkephalinase B", "setting": "enkephalinase B", "result": "markedly enhances the inhibitory potency"}]}
